Measured values taken from PubChem BioAssay AID2060354 (Molecular Pharmacology Branch, DTP, NCI, 2025).

Test system: 519858-162-T-J1-PDC spheroid growth inhibition
Assay: Anticancer human tumor 519858-162-T-J1-PDC patient-derived colon adenocarcinoma cell line growth inhibition [TAK]
Conditions: spheroids with HUVEC and MSC; for IC50: curve of first compound; for viability, T/C: stronger effect = lower value
How it was run: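 Spheroids of 60% malignant cells, 25% HUVEC and 15% hMSC were exposed to targeted agents combined with TAK-243 or ipatasertib. Concentrations started at or near clinical Cmax (10 microM if unknown) and descended in half-log steps.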
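Also: each agent tested in combination with TAK-243 or ipatasertib; spheroids exposed to drugs for 7 days.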

CC(=O)Nc1cccc(-n2c(=O)n(C3CC3)c(=O)c3c(Nc4ccc(I)cc4F)n(C)c(=O)c(C)c32)c1 + CC(C)NCC(C(=O)N1CCN(c2ncnc3c2C(C)CC3O)CC1)c1ccc(Cl)cc1
IC50 (second compound 0.3 µM): 5.63 nM | IC50 (second compound 0.949 µM): 5.24 nM | IC50 (second compound 3 µM): 5.89 nM | IC50 (second compound 9.49 µM): 6.24 nM | IC50 (second compound 30 µM): 9.07 nM | viability, T/C (second compound 0.3 µM, first compound 94.9 pM): 78.5% | viability, T/C (second compound 0.3 µM, first compound 0.0003 µM): 87.2% | viability, T/C (second compound 0.3 µM, first compound 0.000949 µM): 72% | viability, T/C (second compound 0.3 µM, first compound 0.003 µM): 62.6% | viability, T/C (second compound 0.3 µM, first compound 0.00949 µM): 40.1% | viability, T/C (second compound 0.3 µM, first compound 0.03 µM): 18.1% | viability, T/C (second compound 0.949 µM, first compound 94.9 pM): 99.8% | viability, T/C (second compound 0.949 µM, first compound 0.0003 µM): 107% | viability, T/C (second compound 0.949 µM, first compound 0.000949 µM): 69% | viability, T/C (second compound 0.949 µM, first compound 0.003 µM): 66.1% | viability, T/C (second compound 0.949 µM, first compound 0.00949 µM): 37.8% | viability, T/C (second compound 0.949 µM, first compound 0.03 µM): 18.4% | viability, T/C (second compound 3 µM, first compound 94.9 pM): 82.7% | viability, T/C (second compound 3 µM, first compound 0.0003 µM): 97.7% | viability, T/C (second compound 3 µM, first compound 0.000949 µM): 86.2% | viability, T/C (second compound 3 µM, first compound 0.003 µM): 65.6% | viability, T/C (second compound 3 µM, first compound 0.00949 µM): 39.5% | viability, T/C (second compound 3 µM, first compound 0.03 µM): 26.5% | viability, T/C (second compound 9.49 µM, first compound 94.9 pM): 70.6% | viability, T/C (second compound 9.49 µM, first compound 0.0003 µM): 78.9% | viability, T/C (second compound 9.49 µM, first compound 0.000949 µM): 73.2% | viability, T/C (second compound 9.49 µM, first compound 0.003 µM): 62.7% | viability, T/C (second compound 9.49 µM, first compound 0.00949 µM): 42.5% | viability, T/C (second compound 9.49 µM, first compound 0.03 µM): 18.2% | viability, T/C (second compound 30 µM, first compound 94.9 pM): 109% | viability, T/C (second compound 30 µM, first compound 0.0003 µM): 77.6% | viability, T/C (second compound 30 µM, first compound 0.000949 µM): 95.4% | viability, T/C (second compound 30 µM, first compound 0.003 µM): 68.5% | viability, T/C (second compound 30 µM, first compound 0.00949 µM): 48.3% | viability, T/C (second compound 30 µM, first compound 0.03 µM): 21.8%
